{"source": "patent EP3064205A1", "about": "“Therapeutic use of isomeric forms of 2-(4-chlorophenyl)quinolin-4-yl)(piperidin-2-yl)methanol” (Glionova AB, priority 2015, dated 2016)", "key": {"[1]": {"system": "Panc-1 cells", "assay": "APH cell viability assay, 3D culture", "format": "cell-based, human", "source_text": "(§1) The following well-characterized human pancreatic ductal adenocarcinoma cell lines (ATCC) were used: HPAF II, BxPC-3, MIA-PaCa2 and Panc-1. These cell lines were generated from patient-derived tumors and are widely used model system to study pancreatic cancer (HPAF II: Kim YW, et al. Pancreas 4: 353-362, 1989; BxPC-3: Tan MH, et al. Cancer Invest. 4: 15-23, 1986; MIA-PaCa2: Yunis AA, et al. Int. J. Cancer 19: 128-135, 1977; Pacn-1: Lieber M, et al. Int. J. Cancer 15: 741-747, 1975).\n(§2) Panc-1, HPAF II, KPC pancreatic adenocarcinoma cell lines were trypsin-treated and counted using the Casy Cell Counter according to the manufacturer's recommendations (GmbH). Subsequently, they were seeded onto round bottom non-tissue culture treated 96 well-plates (Falcon, BD NJ, USA) at a concentration of 2500 cells/well in 100 µl DMEM-F12 or phenol red-free DMEM-F12 medium, containing 10% FCS and supplemented with 20% methyl cellulose stock solution. For preparation of methylcellulose stock solution, 6 grams of methylcellulose powder (M0512, Sigma-Aldrich) was autoclaved in a 500 ml flask containing a magnetic stirrer (the methylcellulose powder is resistant to this procedure). The autoclaved methylcellulose was dissolved in preheated 250 ml basal medium (60°C) for 20 min (using the magnetic stirrer). Thereafter, 250 ml medium (room temperature) containing double amount of FCS (20%) was added to a final volume of 500 ml and the whole solution mixed overnight at 4°C. The final stock solution was aliquoted and cleared by centrifugation (5000g, 2 h, room temperature). Only the clear highly viscous supernatant was used for the spheroid assay (about 90-95% of the stock solution). For spheroid generation, 20% of the stock solution and 80% culture medium corresponding to final 0.24% methylcellulose was used. Spheroids were grown under standard culture conditions (5% CO2, at 37°C).\nFor 2D culture, cells were seeded on flat bottom 96 well plates (Costar) at a concentration of 2500 cells/well in 100 µl phenol red-free RPMI-F12 medium containing 10% FCS. For 3D culture, cells were seeded according to the description for spheroid preparation in phenol-free medium. […] The viability rate was calculated as a percentage of the untreated cells. All data were expressed as the mean ± SD of at least 8 replicates. To confirm the reliability of the APH assay on 2D culture, cell viability was measured using CellTiter-Glo assay (Promega).\nThe APH assay, which measures the activity of acidic phosphatase in the cells, was optimized for 3D cultures as follows. […] Absorbance at 405nm was measured within 10 minutes using a FluoStar OPTIMA plate reader (BMG Labtech). Viability rate was calculated as per cent of CTR untreated cells. All data are expressed as the mean ± SD of at least 8 replicates."}, "[2]": {"assay": "Pharmacokinetic evaluation in mice (plasma and brain)", "format": "in vivo, male NMRI mice", "conditions": "for Kp / half-life / Tmax / Cmax: male, NMRI, mouse; for Kp: brain/plasma, single oral administration of 20 mg/kg", "protocol": "Compounds S1 and S2 were formulated at 0.4 mg/mL in 7.5% NMP, 10% Kolliphor in 0.9% NaCl (for i.v. administration) and at 2.0 mg/mL in 0.1% Tween 80, 0.5% Na-CMC in water (for p.o. administration).\nThe pharmacokinetic properties of S1 and S2 were determined in male NMRI mice (Charles River, Germany) following single intravenous (i.v., tail vein, 2 mg/kg) or per oral (p.o, gavage, 20 mg/kg). Light isoflurane anaesthesia was used at i.v. administration, no anaesthesia was used at p.o. administration. Blood samples were kept on ice after sampling and centrigued at +4 °C, 1800 x g for 5 minutes to prepare plasma. Blood and homogenized brain samples were taken from animals at the following nominal time points: 15, 30, and 60 minutes, and 2, 4, 6, 8, 24, 48, 72 and 144 hours after dosing (n=3 samples/time-point). Blood sampling (400-600 microliters) was performed by orbital plexus collection under isoflurane anaesthesia into EDTA plasma tubes (BD Microtainer K2EDTA). Bioanalytical quantification of S1 and S2 was analysed in plasma and brain samples by a UPLC-MS/MS. Pharmacokinetics were calculated by non-compartmental analysis (NCA) from composite (mean) profiles using Phoenix WinNonlin Professional (v 6.3). Nominal sampling times and dose levels have been used for the NCA calculations. All animals dosed with S1 and S2 were systemically exposed to the test compound. The plasma and brain concentrations were detectable and analysed until 144 h.\nBrain sampling was performed after the end of blood sampling at the specified time points following euthanization and skull extraction. Brains were weighed and placed in test tubes and placed on wet ice. 4 mL PBS (pH 7.4) per 1 g of brain tissue was added to the test tube and brains were then homogenized using an Ultra-Turrax T25 homogenisator (Setting 2, 9500 rpm, 10s). The homogenates were frozen at -20° C immediately after homogenization."}, "[3]": {"system": "Panc-1 cells", "assay": "ATP viability assay (CellTiter-Glo), 3D culture, automatic drug screen", "format": "cell-based, human", "conditions": "Panc-1, 3D culture, 72 h", "source_text": "as §1\nas §2, with “For spheroid generation, 20% of the stock solution and 80% culture medium corresponding to final 0.24% methylcellulose was used. Spheroids were grown under standard culture conditions (5% CO2, at 37°C).” left out\n(§3) In order to confirm the results presented in figure 1, S1 was further tested in 2 different cell lines in 3D culture format, using an automatic drug screening assay. The effect of Vacquinol-1 RS (S1) on cell viability was measured after 72h using the CellTiter-Glo assay (Promega) adapted for 3D culture."}, "[4]": {"system": "HPAF II cells", "assay": "ATP viability assay (CellTiter-Glo), 3D culture, automatic drug screen", "format": "cell-based, human", "conditions": "72 h, 30-10 µM", "source_text": "as §1\nas §2, with “For spheroid generation, 20% of the stock solution and 80% culture medium corresponding to final 0.24% methylcellulose was used. Spheroids were grown under standard culture conditions (5% CO2, at 37°C).” left out\nas §3"}, "[5]": {"system": "Panc-1 cells", "assay": "APH cell viability assay, 2D culture", "format": "cell-based, human", "conditions": "Panc-1, 2D culture, 30 µM", "source_text": "as §1\nFor 2D culture, cells were seeded on flat bottom 96 well plates (Costar) at a concentration of 2500 cells/well in 100 µl phenol red-free RPMI-F12 medium containing 10% FCS. For 3D culture, cells were seeded according to the description for spheroid preparation in phenol-free medium. On day 4 Vacquinol-1 RS (S1) was added at the indicated final concentrations in an extra volume of 10 µl/well and in 8 replicates for each time point. On day 7, an APH assay (See below) was performed. The viability rate was calculated as a percentage of the untreated cells. All data were expressed as the mean ± SD of at least 8 replicates. To confirm the reliability of the APH assay on 2D culture, cell viability was measured using CellTiter-Glo assay (Promega).\nThe APH assay, which measures the activity of acidic phosphatase in the cells, was optimized for 3D cultures as follows. Only 70µl of medium was removed in order not to suck up the spheres. Then 60µl of PBS was added per well and 100µl of APH buffer (0.1 M sodium acetate pH 5.2 and 0.1 % triton X-100) containing the substrate (2mg/ml p-nitrophenyl phosphate, final pH 4.8 from Thermo Scientific). After 2 hours incubation for the 2D culture and 5 hours for the 3D culture, 10µl of 1 M NaOH was added to stop the APH activity. Absorbance at 405nm was measured within 10 minutes using a FluoStar OPTIMA plate reader (BMG Labtech). Viability rate was calculated as per cent of CTR untreated cells. All data are expressed as the mean ± SD of at least 8 replicates."}}, "note": "Where two headings read alike, the source gives them in different places."}
{"compound": "O[C@H](c1cc(-c2ccc(Cl)cc2)nc2ccccc12)[C@@H]1CCCCN1", "note": "[S1, (R)-(2-(4-chlorophenyl)quinolin-4-yl)((S)-piperidin-2-yl)methanol]", "values": [{"measurement": "vacuole formation", "setting": "[1]; Panc-1, 30 µM (data not shown)", "value": "vacuoles were formed"}, {"measurement": "effect on cell viability", "setting": "[1]; Panc-1, 3D culture, 30 µM, 24h", "value": "did not affect cells"}, {"measurement": "decrease in cell viability", "setting": "[1]; Panc-1, 3D culture, 30 µM, 48h", "value": 55, "unit": "%"}, {"measurement": "decrease in cell viability", "setting": "[1]; Panc-1, 3D culture, 30 µM, 72h", "value": 64, "unit": "%"}, {"measurement": "Brain AUC last", "setting": "[2]; brain, i.v., 2 mg/kg", "value": 52.7, "unit": "µg·h/mL"}, {"measurement": "Brain Cmax", "setting": "[2]; brain, i.v., 2 mg/kg", "value": 1970, "unit": "ng/mL"}, {"measurement": "Brain tlast", "setting": "[2]; brain, i.v., 2 mg/kg", "value": 144, "unit": "h"}, {"measurement": "Brain AUC last", "setting": "[2]; brain, p.o., 20 mg/kg", "value": 400, "unit": "µg·h/mL"}, {"measurement": "Brain Cmax", "setting": "[2]; brain, p.o., 20 mg/kg", "value": 4840, "unit": "ng/mL"}, {"measurement": "Brain tlast", "setting": "[2]; brain, p.o., 20 mg/kg", "value": 144, "unit": "h"}, {"measurement": "Kp", "setting": "[2]; po, 20 mg/kg, read-out: exposure ratio AUC(brain/plasma)", "value": 1.6}, {"measurement": "Kp", "setting": "[2]; po, 20 mg/kg, read-out: exposure ratio Cmax(brain/plasma)", "value": 2.2}, {"measurement": "half-life", "setting": "[2]; iv, brain, i.v., 2 mg/kg, read-out: Brain T1/2 (converted)", "value": 67, "unit": "h"}, {"measurement": "Tmax", "setting": "[2]; iv, brain, i.v., 2 mg/kg, read-out: Brain tmax", "value": 0.25, "unit": "h"}, {"measurement": "Cmax", "setting": "[2]; iv, plasma, 2 mg/kg", "value": 775, "unit": "ng/mL"}, {"measurement": "half-life", "setting": "[2]; iv, plasma, i.v., 2 mg/kg, read-out: Plasma T1/2 (converted)", "value": 84, "unit": "h"}, {"measurement": "Tmax", "setting": "[2]; iv, plasma, i.v., 2 mg/kg, read-out: Plasma tmax", "value": 4, "unit": "h"}, {"measurement": "Tmax", "setting": "[2]; po, brain, p.o., 20 mg/kg, read-out: Brain tmax", "value": 8, "unit": "h"}, {"measurement": "Cmax", "setting": "[2]; po, plasma, 20 mg/kg", "value": 2210, "unit": "ng/mL"}, {"measurement": "Tmax", "setting": "[2]; po, plasma, p.o., 20 mg/kg, read-out: Plasma tmax", "value": 4, "unit": "h"}, {"measurement": "Plasma AUC last", "setting": "[2]; plasma, i.v., 2 mg/kg", "value": 62, "unit": "µg·h/mL"}, {"measurement": "Plasma tlast", "setting": "[2]; plasma, i.v., 2 mg/kg", "value": 144, "unit": "h"}, {"measurement": "Plasma AUC last", "setting": "[2]; plasma, p.o., 20 mg/kg", "value": 246, "unit": "µg·h/mL"}, {"measurement": "Plasma tlast", "setting": "[2]; plasma, p.o., 20 mg/kg", "value": 144, "unit": "h"}, {"measurement": "decrease in viability", "setting": "[3]; 20-10 µM", "value": "~20", "unit": "%"}, {"measurement": "viability compared to control", "setting": "[3]; 30 and 25 µM", "value": "marked decrease in viability"}, {"measurement": "viability compared to control", "setting": "[4]", "value": "marked decrease in viability"}, {"measurement": "decrease in cell viability", "setting": "[5]; 24h", "value": 43, "unit": "%"}, {"measurement": "decrease in cell viability", "setting": "[5]; 48h", "value": 63, "unit": "%"}, {"measurement": "decrease in cell viability", "setting": "[5]; 72h", "value": 70, "unit": "%"}]}
